# Test results from patent US11179390B2, “Subcutaneous administration of a P2Y12 receptor antagonist” (Idorsia Pharmaceuticals Ltd, priority 2017, dated 2021).
# Where two headings read alike, the source gives them in different places.
# What was measured:
# [1] = Solubility in aqueous media; format: physicochemical; conditions: lyophilized disodium salt of Compound 1, reconstituted in water, pH=8.4
# [2] = tested on: Adenosine diphosphate (ADP)-induced platelet aggregation; assay: Inhibition of platelet aggregation (IPA), LTA assay, after single subcutaneous doses, clinical phase I study; format: in vivo, human (healthy male subjects); conditions: for % IPA (inhibition of platelet aggregation) calculated using maximum platelet aggregation values, mean ± SD: N = 6, 20 μM ADP
# Method: (§1) The time- and dose-dependency of plasma concentration and inhibition of platelet aggregation (IPA) after subcutaneous administration of Compound 1 was investigated in a clinical phase I study in healthy male subjects.
# (§2) In a randomized, double-blind, placebo-controlled study, 48 subjects in fasted condition were exposed to single, subcutaneous doses ranging from 1 to 32 mg (1 mg, 2 mg, 4 mg, 8 mg, 16 mg and 32 mg) of Compound 1 (n=6 on Compound 1 and n=2 on placebo per dose level).
# (§3) Compound 1 for s.c. administration was available as sealed glass vials at the strength of 20 mg. The vials contained lyophilized Compound 1 to be reconstituted with 1 mL of water for injection to prepare stock solutions of 20 mg/mL (see above: Formulation of Compound 1 (higher dose of 20 mg/mL)). These stock solutions were further diluted with 0.9% sodium chloride to prepare 2, 4, 8, 16, and 20 mg/mL solutions. The volume injected was 0.5 mL for dose levels 1, 2, 4, and 8 mg. For dose levels 16 and 32 mg, 1 or 2 injection(s) of 0.8 mL from the 20 mg/mL solution was (were) performed.
# (§4) The solution for injection was prepared for administration in a syringe suitable for s.c. injection. The solution was administered as injection(s) in the thigh.
# PD blood samples were collected by direct venipuncture or via an i.v. catheter placed in an antecubital vein in the arm, using 18-21 gauge needles. The first 2 mL of blood were discarded, and, thereafter, blood was drawn gently into two open 3.5 mL collection tubes. Collection tubes for LTA (light transmission aggregometry) assays contained phenylalanine-proline-arginine-cholormethylketone (PPACK) as an anticoagulant.
# Adenosine diphosphate (ADP)-induced platelet aggregation was evaluated by a LTA assay measuring platelet-induced aggregation as an increase in light transmittance (Michelson A D, Methods for the measurement of platelet function (2009) Am J Cardiol 103(3):20A-26A).
# LTA assay: The two 3.5 mL blood samples were centrifuged to prepare platelet-rich plasma (PRP) and platelet-poor plasma (PPP). If needed, PRP was adjusted to a final platelet count of 260×10^9 platelets per liter by dilution with PPP from the same donor. The assay was performed with an 8-channel platelet aggregometer, recording the aggregation after addition of 20 μM ADP as agonist for 6 min. The results are expressed as percent change in light transmittance at maximum (peak) platelet aggregation (MPA), calculated relative to the baseline signal of 0%. The measurements were performed in duplicate.
# [3] = Plasma pharmacokinetics after single subcutaneous doses, clinical phase I study; format: in vivo, human (healthy male subjects); conditions: male, human, sc, N = 6, plasma; for half-life: read-out: t1/2, G.M. (converted); for Tmax: read-out: tmax, Median
# Method: as §1, §2, §3, §4
# The plasma PK parameters of Compound 1 were derived by non-compartmental analysis of the plasma concentration-time profiles. The following parameters were obtained:
# maximum plasma concentration (Cmax); time to reach Cmax (tmax); area under the plasma concentration-time curve (AUC) from zero to time t of the last measured concentration above the limit of quantification (AUC0−t); and terminal elimination half-life (t1/2).
# Blood was collected by direct venipuncture or via an i.v. catheter placed in an antecubital vein in the arm in a 4 mL Monovette® or equivalent tube containing ethylene diamine tetra-acetic acid. Immediately following collection of the required blood volume, the Monovettes® were slowly tilted backwards and forwards (no shaking) to bring the anticoagulant into solution, and immediately cooled on ice. Within 30 min of collection, the Monovettes® were centrifuged at approximately 1500 g for 10 min at 4° C. The plasma was transferred into one labeled polypropylene tube to avoid carry-over of erythrocytes. All samples were stored in an upright position below −70° C.
# The analysis of Compound 1 in plasma was performed using a validated liquid chromatography coupled to tandem mass spectrometry assay. The lower limit of quantification (LLOQ) was 1 ng/mL. Concentrations were calculated by interpolation from a calibration curve. Quality control (QC) samples were analyzed throughout the study. Their measured concentrations were used to determine between-run and overall precision and accuracy of the analysis.
# [4] = tested on: FeCl3 rat thrombosis model; conditions: compared with Ticagrelor; cited from earlier work
# [5] = oral administration of Compound 1 or its prodrug, clinical phase I study; cited from earlier work
compound,measurement,setting,value
"CCCCOC(=O)N1CCN(C(=O)[C@H](CP(=O)(O)O)NC(=O)c2cc(N3CC[C@H](OC)C3)nc(-c3ccccc3)n2)CC1 [Compound 1, 4-((R)-2-{[6-((S)-3-methoxy-pyrrolidin-1-yl)-2-phenyl-pyrimidine-4-carbonyl]-amino}-3-phosphono-propionyl)-piperazine-1-carboxylic acid butyl ester]",solubility,[1],75 mg/mL
same,"% IPA (inhibition of platelet aggregation) calculated using maximum platelet aggregation values, mean ± SD","[2]; 1 mg s.c., 0.25 h",61.4 ± 15.1%
same,"% IPA (inhibition of platelet aggregation) calculated using maximum platelet aggregation values, mean ± SD","[2]; 1 mg s.c., 0.5 h",64.4 ± 12.8%
same,"% IPA (inhibition of platelet aggregation) calculated using maximum platelet aggregation values, mean ± SD","[2]; 1 mg s.c., 3 h",15.8 ± 20.0%
same,"% IPA (inhibition of platelet aggregation) calculated using maximum platelet aggregation values, mean ± SD","[2]; 1 mg s.c., 4 h",−10.0 ± 24.2%
same,"% IPA (inhibition of platelet aggregation) calculated using maximum platelet aggregation values, mean ± SD","[2]; 1 mg s.c., 5 h",−6.1 ± 26.0%
same,"% IPA (inhibition of platelet aggregation) calculated using maximum platelet aggregation values, mean ± SD","[2]; 1 mg s.c., 12 h",−4.5 ± 24.7%
same,"% IPA (inhibition of platelet aggregation) calculated using maximum platelet aggregation values, mean ± SD","[2]; 1 mg s.c., 48 h",−47.7 ± 29.9%
same,"% IPA (inhibition of platelet aggregation) calculated using maximum platelet aggregation values, mean ± SD","[2]; 2 mg s.c., 0.25 h",60.3 ± 48.3%
same,"% IPA (inhibition of platelet aggregation) calculated using maximum platelet aggregation values, mean ± SD","[2]; 2 mg s.c., 0.5 h",79.5 ± 10.8%
same,"% IPA (inhibition of platelet aggregation) calculated using maximum platelet aggregation values, mean ± SD","[2]; 2 mg s.c., 3 h",36.8 ± 30.0%
same,"% IPA (inhibition of platelet aggregation) calculated using maximum platelet aggregation values, mean ± SD","[2]; 2 mg s.c., 4 h",35.5 ± 18.9%
same,"% IPA (inhibition of platelet aggregation) calculated using maximum platelet aggregation values, mean ± SD","[2]; 2 mg s.c., 5 h",14.1 ± 28.4%
same,"% IPA (inhibition of platelet aggregation) calculated using maximum platelet aggregation values, mean ± SD","[2]; 2 mg s.c., 12 h",31.3 ± 28.9%
same,"% IPA (inhibition of platelet aggregation) calculated using maximum platelet aggregation values, mean ± SD","[2]; 2 mg s.c., 48 h",11.3 ± 38.5%
same,"% IPA (inhibition of platelet aggregation) calculated using maximum platelet aggregation values, mean ± SD","[2]; 4 mg s.c., 0.25 h",79.7 ± 6.0%
same,"% IPA (inhibition of platelet aggregation) calculated using maximum platelet aggregation values, mean ± SD","[2]; 4 mg s.c., 0.5 h",84.7 ± 5.4%
same,"% IPA (inhibition of platelet aggregation) calculated using maximum platelet aggregation values, mean ± SD","[2]; 4 mg s.c., 3 h",58.5 ± 7.2%
same,"% IPA (inhibition of platelet aggregation) calculated using maximum platelet aggregation values, mean ± SD","[2]; 4 mg s.c., 4 h",50.6 ± 22.1%
same,"% IPA (inhibition of platelet aggregation) calculated using maximum platelet aggregation values, mean ± SD","[2]; 4 mg s.c., 5 h",47.9 ± 17.9%
same,"% IPA (inhibition of platelet aggregation) calculated using maximum platelet aggregation values, mean ± SD","[2]; 4 mg s.c., 12 h",37.4 ± 16.7%
same,"% IPA (inhibition of platelet aggregation) calculated using maximum platelet aggregation values, mean ± SD","[2]; 4 mg s.c., 48 h",2.1 ± 16.3%
same,"% IPA (inhibition of platelet aggregation) calculated using maximum platelet aggregation values, mean ± SD","[2]; 8 mg s.c., 0.25 h",88.9 ± 8.4%
same,"% IPA (inhibition of platelet aggregation) calculated using maximum platelet aggregation values, mean ± SD","[2]; 8 mg s.c., 0.5 h",90.0 ± 8.5%
same,"% IPA (inhibition of platelet aggregation) calculated using maximum platelet aggregation values, mean ± SD","[2]; 8 mg s.c., 3 h",77.9 ± 19.5%
same,"% IPA (inhibition of platelet aggregation) calculated using maximum platelet aggregation values, mean ± SD","[2]; 8 mg s.c., 4 h",70.9 ± 12.5%
same,"% IPA (inhibition of platelet aggregation) calculated using maximum platelet aggregation values, mean ± SD","[2]; 8 mg s.c., 5 h",75.2 ± 11.5%
same,"% IPA (inhibition of platelet aggregation) calculated using maximum platelet aggregation values, mean ± SD","[2]; 8 mg s.c., 12 h",64.0 ± 10.4%
same,"% IPA (inhibition of platelet aggregation) calculated using maximum platelet aggregation values, mean ± SD","[2]; 8 mg s.c., 48 h",−1.3 ± 33.7%
same,duration for which mean % IPA≥85% was sustained post administration,[2]; 16 mg s.c.,approximately 5 h
same,"% IPA (inhibition of platelet aggregation) calculated using maximum platelet aggregation values, mean ± SD","[2]; 16 mg s.c., 0.25 h",92.8 ± 5.5%
same,"% IPA (inhibition of platelet aggregation) calculated using maximum platelet aggregation values, mean ± SD","[2]; 16 mg s.c., 0.5 h",93.1 ± 3.6%
same,"% IPA (inhibition of platelet aggregation) calculated using maximum platelet aggregation values, mean ± SD","[2]; 16 mg s.c., 3 h",95.0 ± 1.2%
same,"% IPA (inhibition of platelet aggregation) calculated using maximum platelet aggregation values, mean ± SD","[2]; 16 mg s.c., 4 h",88.2 ± 4.7%
same,"% IPA (inhibition of platelet aggregation) calculated using maximum platelet aggregation values, mean ± SD","[2]; 16 mg s.c., 5 h",87.6 ± 5.5%
same,"% IPA (inhibition of platelet aggregation) calculated using maximum platelet aggregation values, mean ± SD","[2]; 16 mg s.c., 12 h",76.0 ± 13.8%
same,"% IPA (inhibition of platelet aggregation) calculated using maximum platelet aggregation values, mean ± SD","[2]; 16 mg s.c., 48 h",−1.6 ± 43.8%
same,duration for which mean % IPA≥85% was sustained post administration,[2]; 32 mg s.c.,~12 h
same,"% IPA (inhibition of platelet aggregation) calculated using maximum platelet aggregation values, mean ± SD","[2]; 32 mg s.c., 0.25 h",95.5 ± 2.7%
same,"% IPA (inhibition of platelet aggregation) calculated using maximum platelet aggregation values, mean ± SD","[2]; 32 mg s.c., 0.5 h",94.5 ± 2.0%
same,"% IPA (inhibition of platelet aggregation) calculated using maximum platelet aggregation values, mean ± SD","[2]; 32 mg s.c., 3 h",94.5 ± 2.0%
same,"% IPA (inhibition of platelet aggregation) calculated using maximum platelet aggregation values, mean ± SD","[2]; 32 mg s.c., 4 h",91.2 ± 1.9%
same,"% IPA (inhibition of platelet aggregation) calculated using maximum platelet aggregation values, mean ± SD","[2]; 32 mg s.c., 5 h",92.1 ± 2.6%
same,"% IPA (inhibition of platelet aggregation) calculated using maximum platelet aggregation values, mean ± SD","[2]; 32 mg s.c., 12 h",83.5 ± 12.9%
same,"% IPA (inhibition of platelet aggregation) calculated using maximum platelet aggregation values, mean ± SD","[2]; 32 mg s.c., 48 h",29.8 ± 20.9%
same,time post dosing at which peak % IPA was achieved,[2]; at each dose level (1 to 32 mg s.c.),15 to 30 min
same,peak % IPA,[2]; doses ≥4 mg s.c.,exceeded 85%
same,peak % IPA,[2]; doses ≥8 mg s.c.,exceeded 85%
same,time in which peak % IPA exceeded 85%,[2]; doses ≥8 mg s.c.,less than 15 min
same,AUC(0-t),[3]; 1 mg s.c. single dose,56.1 ng·h/mL
same,Cmax,[3]; 1 mg s.c. single dose,33.7 ng/mL
same,half-life,[3]; 1 mg s.c. single dose,1.34 h
same,Tmax,[3]; 1 mg s.c. single dose,0.5 h
same,AUC(0-t),[3]; 2 mg s.c. single dose,116 ng·h/mL
same,Cmax,[3]; 2 mg s.c. single dose,58.4 ng/mL
same,half-life,[3]; 2 mg s.c. single dose,1.92 h
same,Tmax,[3]; 2 mg s.c. single dose,0.5 h
same,AUC(0-t),[3]; 4 mg s.c. single dose,261 ng·h/mL
same,Cmax,[3]; 4 mg s.c. single dose,128 ng/mL
same,half-life,[3]; 4 mg s.c. single dose,2.66 h
same,Tmax,[3]; 4 mg s.c. single dose,0.5 h
same,AUC(0-t),[3]; 8 mg s.c. single dose,585 ng·h/mL
same,Cmax,[3]; 8 mg s.c. single dose,273 ng/mL
same,half-life,[3]; 8 mg s.c. single dose,3.98 h
same,Tmax,[3]; 8 mg s.c. single dose,0.5 h
same,AUC(0-t),[3]; 16 mg s.c. single dose,1120 ng·h/mL
same,Cmax,[3]; 16 mg s.c. single dose,435 ng/mL
same,half-life,[3]; 16 mg s.c. single dose,7.2 h
same,Tmax,[3]; 16 mg s.c. single dose,0.75 h
same,AUC(0-t),[3]; 32 mg s.c. single dose,2340 ng·h/mL
same,Cmax,[3]; 32 mg s.c. single dose,930 ng/mL
same,half-life,[3]; 32 mg s.c. single dose,9.2 h
same,Tmax,[3]; 32 mg s.c. single dose,0.75 h
same,therapeutic window,[4],significantly wider therapeutic window even than Ticagrelor
same,bleeding events,[5],No bleeding events were observed
